Where “and” joins values, the source holds several entries; their conditions need not be identical. Equal values may be shown once.
System: Bcl2
Test: ELISA, Bcl2 concentration
Assay type: cell-based, human
Method: The concentrations of matrix metalloproteinase-2 (MMP2), matrix metalloproteinase-9 (MMP9), Bcl2, BAX, P53, Malondialdehyde (MDA), Glutathione (GSH), caspase 8, caspase 9 and IL-6 were measured quantitatively in 5c treated MCF7 and HEP2 cells using ELISA (Enzyme-Linked Immunosorbent Assay) (Table 4). Gelatinases are a collective word for MMP-2 and MMP-9, where MMP-2 is gelatinase-A and MMP-9 is gelatinase-B. Solid tumor invasion, metastasis, and angiogenesis have long been linked to gelatinases (Das et al. [2021]). […] Bcl2 is a crucial protein that targets apoptosis inhibition. It is regarded as a predictive biomarker or therapeutic target in the diagnosis of cancer due to its broad expression in a variety of cancers (Porter et al. [2009]). […] The pro-apoptotic protein BAX permeabilizes the mitochondrial outer membrane by changing from a cytosolic monomer to a hazardous oligomer triggering the apoptosis process (Fulda and Debatin [2006]). […] P53 transcription factor performs an essential tumor suppressor role by coordinating a wide range of physiological responses, including DNA repair, cell cycle arrest, cellular senescence, cell death, cell differentiation, and metabolism (Liebl and Hofmann [2021]). It was activated in MCF7 and HEP2-treated cells with values (4.28 and 3.109 ng/mL), respectively, compared to their controls (3.44 and 2.06 ng/mL). […]

## COc1ccc(NC(=O)COc2ccc(C=CC(=O)c3cccs3)cc2)cc1 [Compound 5c, N-(4-Methoxyphenyl)-2-(4-(3-oxo-3-(thiophen-2-yl)prop-1-en-1-yl)phenoxy)acetamide]
5c treated HEP2 cells, untreated 2299.4±170.35
  Bcl2 concentration: 1809.34 pg/mL and 1809.34 ± 27.45 pg/mL
5c treated MCF7 cells, untreated 2479.8±17.08
  Bcl2 concentration: 2089.96 pg/mL and 2089.96 ± 17.97 pg/mL

Reference: PMC11582173, “Synthesis, cytotoxicity, anti-inflammatory, anti-metastatic and anti-oxidant activities of novel chalcones incorporating 2-phenoxy-N-arylacetamide and thiophene moieties: induction of apoptosis in MCF7 and HEP2 cells” (Naunyn-Schmiedeberg's Archives of Pharmacology, 2024)
